For series [1] the following is noted: within and between patients; cited from earlier work.
The nature of series [2]: clinical. Particulars: human, in vivo, 90 mg.
Series [3] can be described thus: Food effect analysis of Test Formulation (Fasted Study vs Fed Study). Type of series: in vivo, human. Particulars: Test Formulation single dose, least-squares geometric mean. The method, then: Objective: The objective of this analysis was to investigate the effect of food on the single-dose PK of Test Formulation using fasted and fed PK data from two studies, referred to as “Fasted Study” and “Fed Study,” respectively below.
Methodology. Since the PK parameters following the oral administration of Test Formulation in fasting and fed conditions were obtained from two different studies (Fasted Study and Fed Study, respectively), the PK data were analyzed using an analysis of variance (ANOVA), which considered the data as if they were collected in a parallel design.
Both studies were fully replicate studies and therefore subjects were dosed with Test Formulation on two occasions. The PK population in this analysis included subjects who received Test Formulation on two occasions; subjects who received Test Formulation only once were not included in this analysis.
In the current analysis, data from the PK population of the Fasted Study and Fed Study were considered “Reference” Treatment and “Test” Treatment, respectively.
For each parameter, the value used for the subject was the geometric mean of the two values that were available for each subject. The use of geometric means is consistent with the assumption that PK parameters are In normally distributed. Subjects with only one period of data were not included in the ANOVA, as this would incorrectly imply that singular data have the same weight as subjects with replicate values for the parameter.
In the Fasted Study, 51 subjects received Test Formulation on at least one occasion under fasting conditions, of whom 44 received Test Formulation on both occasions.
In the Fed Study, 32 subjects received Test Formulation on at least one occasion under fed conditions, of whom 27 received Test Formulation on both occasions.

Turning to `Cc1nc(Nc2ncc(C(=O)Nc3c(C)cccc3Cl)s2)cc(N2CCN(CCO)CC2)n1` [Dasatinib, dasatinib], the “coefficient of variation of AUC” value in series [1] is “up to 100%”. In addition, the “coefficient of variation of Cmax” value in series [1] is listed as “up to 100%”. The AUC(0-inf) in series [2] was determined as 434 ng·h/mL; in series [3] (human, plasma, oral, fasting (n = 44), read-out: AUC(0-∞) LSmeans Fasted), 446 ng·h/mL; in series [3] (human, plasma, oral, fed (n = 27), read-out: AUC(0-∞) LSmeans Fed), 431 ng·h/mL. Also, the Cmax in series [2] was 138 ng/mL; in series [3] (human, plasma, oral, fasting (n = 44), read-out: Cmax LSmeans Fasted), 127 ng/mL; in series [3] (human, plasma, oral, fed (n = 27), read-out: Cmax LSmeans Fed), 67 ng/mL. Moreover, in series [3] (fed (n = 27)), the “AUC(0-24 h) LSmeans Fed” value came out at 413 ng·h/mL. Moreover, the AUC(0-t) in series [3] (human, plasma, oral, fasting (n = 44), read-out: AUC(0-24 h) LSmeans Fasted) is 433 ng·h/mL.

The values are drawn from patent publication US20230121325A1, “FAST DISSOLVING PHARMACEUTICAL COMPOSITIONS” (XSPRAY PHARMA AB, priority 2021, published 2023).
